Consider eleven compounds from patent publication US20060276464A1, “Diarylsulfone sulfonamides and use thereof” (Wyeth, priority 2005, published 2006).

In series [1] the target is T1, SFRP-1 (Homo sapiens, UniProt Q8N474).
T1 sequence (Q8N474 32-314): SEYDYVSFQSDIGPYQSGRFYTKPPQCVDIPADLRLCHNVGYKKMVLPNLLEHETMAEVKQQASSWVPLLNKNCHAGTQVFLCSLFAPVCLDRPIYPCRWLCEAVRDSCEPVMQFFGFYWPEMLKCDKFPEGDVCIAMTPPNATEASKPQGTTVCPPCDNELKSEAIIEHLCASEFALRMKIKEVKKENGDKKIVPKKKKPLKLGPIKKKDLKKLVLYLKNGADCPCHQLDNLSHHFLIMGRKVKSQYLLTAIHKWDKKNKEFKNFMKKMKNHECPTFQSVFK
Put plainly: Cell-based assay for in vitro measurement of SFRP-1/SARP2 antagonist activity (U2OS cells co-transfected with 16x TCF-tk-Luciferase reporter, Wnt and hSFRP-1).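 For all read-outs here: U2OS cells co-transfected with a TCF-tk luciferase reporter, a Wnt vector, hSFRP-1 or empty vector and CMV-βgal, luciferase luminescence read in cell lysates alongside βgal activity.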 The note with it: for fold induction at 15 µM: single dose, luciferase reporter.

For series [2], the target named is T1, SFRP-1. Description: Fluorescence polarization binding assay (competitive displacement of a probe compound from SFRP-1).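 Note: test compound competes with a fluorescent probe held by SFRP-1, seen as a drop in probe anisotropy after incubation in darkness, with anisotropy as function of rising compound dose.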 The following applies: fluorescence anisotropy, 45 nM SFRP-1, 20 nM probe. (In general: In fluorescence polarisation assays a small probe gives low polarisation when free and higher when bound to something large.)
Setting [3] is: U2OS, read-out: Fold Induction with SFRP-1, Conc 15 μM, fold induction over SFRP-1 control, cells with SFRP-1.
[4] abbreviates: U2OS, read-out: Fold Induction without SFRP-1, Conc 15 μM, cells without SFRP-1 (specificity control).

Where two headings read alike, the source gives them in different places.

Broadly, the melting point is the temperature of the solid-liquid transition. Take `CC(C)c1cc(C(C)C)c(S(=O)(=O)c2ccccc2)cc1S(=O)(=O)NC1Cc2ccccc2C1` [Example 618, N-(2,3-Dihydro-1H-inden-2-yl)-2,4-diisopropyl-5-(phenylsulfonyl)benzenesulfonamide]: the melting point lay within 215 to 217 °C. Moreover, the fold induction at 15 µM in series [1] (setting [3]) was 2.8. Further, the fold induction at 15 µM in series [1] (setting [4]) is 1.1.
On the same counts, the results for `CC(C)c1cc(C(C)C)c(S(=O)(=O)c2ccc(F)cc2)cc1S(=O)(=O)NCCc1ccccc1` [Example 619, 5-[(4-Fluorophenyl)sulfonyl]-2,4-diisopropyl-N-(2-phenylethyl)benzenesulfonamide] are 154 to 156 °C, 1.3 and 1.1.
For the compound `CC(C)c1cc(C(C)C)c(S(=O)(=O)c2ccc(F)cc2)cc1S(=O)(=O)NC1CCCC1` [Example 621, N-Cyclopentyl-5-[(4-fluorophenyl)sulfonyl]-2,4-diisopropylbenzenesulfonamide], the melting point fell in the range of 202 to 205 °C. The fold induction at 15 µM in series [1] (setting [3]) is 1.2. Also, the fold induction at 15 µM in series [1] (setting [4]) amounted to 1.
On the same counts, the results for `CC(C)c1cc(C(C)C)c(S(=O)(=O)c2ccc(F)cc2)cc1S(=O)(=O)NCCc1ccncc1` [Example 633, 5-[(4-Fluorophenyl)sulfonyl]-2,4-diisopropyl-N-(2-pyridin-4-ylethyl)benzenesulfonamide] are 210 to 211 °C, 1.5 and 1.
Usually EC50 stands for the midpoint of the concentration-response curve. A high value points to lower potency in that assay. Usually IC50 stands for the concentration at which inhibition is half-maximal. Lower therefore signals greater potency. `CNC(=O)CN1CCC(NS(=O)(=O)c2cc(S(=O)(=O)c3ccccc3)ccc2C(F)(F)F)CC1` [Example 1083, N-methyl-2-[4-({[5-(phenylsulfonyl)-2-(trifluoromethyl)phenyl]sulfonyl}amino)piperidin-1-yl]acetamide] returned an EC50 in series [1] of 366 nM. For the same compound, the IC50 in series [2] amounted to 150 nM.
For `CN(C)C(=O)CN1CCC(NS(=O)(=O)c2cc(S(=O)(=O)c3ccccc3)ccc2C(F)(F)F)CC1` [Example 1085, N,N-dimethyl-2-[4-({[5-(phenylsulfonyl)-2-(trifluoromethyl)phenyl]sulfonyl}amino)piperidin-1-yl]acetamide], in that order: 746 nM and 150 nM.
For `CC(C)NC(=O)CN1CCC(NS(=O)(=O)c2cc(S(=O)(=O)c3ccccc3)ccc2C(F)(F)F)CC1` [Example 1086, N-isopropyl-2-[4-({[5-(phenylsulfonyl)-2-(trifluoromethyl)phenyl]sulfonyl}amino)piperidin-1-yl]acetamide], in that order: 492 nM and 270 nM.
For `O=C(CN1CCC(NS(=O)(=O)c2cc(S(=O)(=O)c3ccccc3)ccc2C(F)(F)F)CC1)N1CCOCC1` [Example 1087, N-[1-(2-morpholin-4-yl-2-oxoethyl)piperidin-4-yl]-5-(phenylsulfonyl)-2-(trifluoromethyl)benzenesulfonamide], in that order: 746 nM and 130 nM.
For the compound `O=C(c1cscn1)N1CCC(NS(=O)(=O)c2cc(S(=O)(=O)c3ccccc3)ccc2C(F)(F)F)CC1` [Example 1090, 5-(phenylsulfonyl)-N-[1-(1,3-thiazol-4-ylcarbonyl)piperidin-4-yl]-2-(trifluoromethyl)benzenesulfonamide], the EC50 in series [1] was found to be 393 nM. In series [2], this compound showed a half-inhibitory concentration (IC50) of 60 nM.
For the compound `O=S(=O)(NC1Cc2ccc(Br)cc2C1)c1cc(S(=O)(=O)c2ccccc2)ccc1C(F)(F)F` (centres unmarked) [Example 1094, N-(5-bromo-2,3-dihydro-1H-inden-2-yl)-5-(phenylsulfonyl)-2-(trifluoromethyl)benzenesulfonamide], the fold induction at 10 µM in series [1] (U2OS, read-out: Fold Induction with SFRP-1, U2OS cells, single dose 10 μM, luciferase reporter, fold induction over SFRP-1 control) was 10.4. Also, the IC50 in series [2] was 110 nM.
For `CC(C)(C)OC(=O)N1CCC[C@H]1C(=O)N1CCC(NS(=O)(=O)c2cc(S(=O)(=O)c3cccc(C#N)c3)ccc2C(F)(F)F)CC1` [Example 1095, tert-butyl (2S)-2-{[4-({[5-[(3-cyanophenyl)sulfonyl]-2-(trifluoromethyl)phenyl]sulfonyl}amino)piperidin-1-yl]carbonyl}pyrrolidine-1-carboxylate], the midpoint of the response in series [1], the EC50, lay at 374 nM. Moreover, the IC50 in series [2] stood at 60 nM.
